Test results from PMC9821961, “Ring-Modified Histidine-Containing Cationic Short Peptides Exhibit Anticryptococcal Activity by Cellular Disruption” (Molecules, 2022).
≈ marks a conversion by molar mass, not a printed value. Where “and” joins values, the source holds several entries; their conditions need not be identical. Identical values can stand only once. Like-named read-outs stand apart in the source and are kept apart here.

How the values were obtained:
S. aureus = test: microbe, parasite or virus in culture; format: cell-based, Staphylococcus aureus; details: 48 h
Excerpt: (§1) Microbial strains: Microbial strains were procured from National Culture Collection of Pathogenic Fungi (NCCPF) at the Postgraduate Institute of Medical Education & Research (PGIMER), Chandigarh and Microbial Type Culture Collection and Gene bank (MTCC) at the Institute of Microbial Technology (IMTECH), Chandigarh, India. Peptides were screened against five different strains of fungi: viz. Candida albicans (NCCPF400034), Candida glabrata (MTCC 3019), Candida parapsilosis (NCCPF 440002), Candida krusei (NCCPF 440002) and Cryptococcus neoformans (NCCPF250316), and five strains of bacteria: viz. Escherichia coli (MTCC 2961), Staphylococcus aureus (MTCC 3160), Enterococcus faecalis (MTCC 439), Streptococcus pyogenes (MTCC 442) and Pseudomonas aeruginosa (MTCC 3542).
(§2) Growth media: Antifungal susceptibility testing was carried out using standard broth microdilution assays as per the Clinical and Laboratory Standards Institute (CLSI) guidelines for fungi. RPMI 1640 (Sigma), yeast extract, peptone and dextrose (YPED, Himedia) were used as the incubation broths. The cells were diluted to a cell density of 10^3 colony forming unit (CFU/mL) and incubated at 30 °C for 48 h. Furthermore, Muller Hinton (Himedia) media was utilized for bacterial strains and antibacterial activity was evaluated per CLSI guidelines for bacteria. […] Amphotericin B (Himedia, India) and rifampicin (Himedia, India) were used as standard drugs for the evaluation of activity against all the fungal and bacterial strains, respectively.
(§3) The stock solutions of peptides (2 mg/mL) were prepared in DMSO. Specific amounts of peptide from stock solution were added to a 96-well microtiter plate containing 100 μL of growth media and then serially diluted two-fold. A further 100 μL of growth media containing microbial cells were added to each well and incubated at 30–37 °C for 24–48 h. The optical density (OD) was measured at 600 nm using a BioStack Ready (BioTek Instruments, Winooski, VT, USA) microplate reader to analyze microbial growth inhibition, and IC50 and MIC values were calculated. To visualize the growth and inhibition pattern, a solution of 3-(4,5-dimethylthiazol-2-yl)-2,5-diphenyltetrazolium bromide (MTT) in water was added to the plate and incubated for 2–3 h. MTT reacts with the mitochondrial dehydrogenases, which are present only in a viable cell, to give blue colored formazan crystals. Therefore, a darker color indicates a high number of viable cells; however, non-viable cells appear pale or colorless.

E. faecalis = test: microbe, parasite or virus in culture; format: cell-based, Enterococcus faecalis; details: 48 h
E. coli = test: microbe, parasite or virus in culture; format: cell-based, Escherichia coli; details: 48 h
Excerpt: as §1, §2, §3

C. neoformans cells = test: Cell death pattern analysis by flow cytometry (Annexin V-FITC/PI); format: cell-based, Cryptococcus neoformans; details: treated at MIC, 12 h; PI + annexin V-FITC
Excerpt: Apoptosis includes a series of events occurring inside the cell, causing changes in plasma membrane, genetic material and various internal proteins, therefore leading to programmed cell death. One of the early markers of apoptosis is the translocation of a membrane phospholipid, phosphatidylserine, from the inner to the outer leaflet of the plasma membrane without altering the integrity of the plasma membrane. Annexin V-FITC interacts with the externalized phosphatidylserine, therefore showing the cell change towards apoptosis which can be analyzed using flow cytometry. The four quadrants in flow cytometry indicate different stages of the cells. The percentage depicts the population of the cells in a specific stage. Q1 corresponds to the percentage of cells undergoing necrosis, Q2 depicts the early apoptotic stage of the cells whereas Q4 corresponds to the cells in late-stage apoptosis and Q3 depicts the cells in the native state.
The treated cells along with a batch of untreated cells were centrifuged at 2000× g for 10 min at 4 °C and suspended in cold phosphate-buffered saline (PBS), followed by 2–3 washings with PBS. The harvested treated and untreated cells were then incubated with zymolyase for 1 h at ambient temperature to obtain cell protoplasm. The staining of obtained protoplasm was done using an Annexin V-FITC detection kit (Sigma-Aldrich, Saint Louis, DE, USA). The protoplasm of untreated cells was divided into 4 tubes (2 mL) and into 3 tubes a different staining agent was added while one was kept unstained. […] Furthermore, two more samples were prepared where protoplasm of 10d- and 10o-treated cells were stained with both PI and annexin V-FITC. All 6 samples were then analyzed by using an FACS Calibur (Becton-Dickinson, San Jose, CA, USA) at excitation of 488 nm (for FITC) and 560 nm (for PI) band filter. Approximately 10,000 cells were used for counting.

Cryptococcal cells = details: for MIC Alone: cryptococcal cells, agent alone

Description for HEK 293: The cells (50,000 cells/well) were seeded to the wells of the plate in Dulbecco’s Modified Eagle Medium (DMEM) supplemented with 10% fetal bovine serum at 37 °C overnight and incubated for 24 h to achieve confluency. Peptides at different concentrations of 50, 25, 12.5, 6.25, 3.12, 1.56 and 0.78 μg/mL were added to the cells in separate wells and incubated at 37 °C for 18 h. A further 20 µL MTT solution (5 mg/mL stock conc. in PBS) was added and the plate was incubated for another 3–4 h. To detect the viable cells that react with MTT to make formazan crystals, 120 μL of supernatant was removed and 100 μL DMSO was added to dissolve the crystals. Untreated cells and DMSO (10%) were used as negative and positive controls, respectively [37]. The percent viability of cells was calculated using equation:(2) % Cell viability=Av. Absorbance of treated cells/Av. Absorbance of control cells×100

| Compound | IC50 (S. aureus) [µg/mL] | MIC (S. aureus) [µg/mL] | IC50 (E. faecalis) [µg/mL] | MIC (E. faecalis) [µg/mL] | IC50 (E. coli) [µg/mL] | MIC (E. coli) [µg/mL] | Cell population in Q1 (necrosis) (C. neoformans cells) [%] | Cell population in Q2 (early apoptotic stage) (C. neoformans cells) [%] | Cell population in Q3 (native state) (C. neoformans cells) [%] | Cell population in Q4 (late-stage apoptosis) (C. neoformans cells) [%] | Cytotoxic nature (HEK 293) | MIC In Combination (Cryptococcal cells; combination 10o + Amp B) [µg/mL] | Effect (Cryptococcal cells; combination 10o + Flu) | Fold Decrease in MIC (Cryptococcal cells; combination 10o + Flu) | MIC In Combination (Cryptococcal cells; combination 10o + Flu) [µg/mL] | MIC Alone (Cryptococcal cells) [µg/mL] | Fold Decrease in MIC (Cryptococcal cells; combination 10d + Amp B) | MIC In Combination (Cryptococcal cells; combination 10d + Amp B) | FICI (Cryptococcal cells; combination 10d + Flu) | MIC In Combination (Cryptococcal cells; combination 10d + Flu) [µg/mL] |
| --- | --- | --- | --- | --- | --- | --- | --- | --- | --- | --- | --- | --- | --- | --- | --- | --- | --- | --- | --- | --- |
| COC(=O)[C@H](Cc1ncn(Cc2ccccc2I)c1I)NC(=O)[C@@H](N)Cc1c[nH]c2ccccc12 [10o, Trp-His[1-(2-iodobenzyl)-5-iodo]-OMe] | >35.2 | >64.0 | 17.6 (≈ 25.2 µM) | 32.0 (≈ 45.9 µM) | >35.2 | >64.0 | 2 | 1 | 48.9 | 48.1 | non-cytotoxic | 0.287 | Additive | 1.5 | 2.999 | 4.59 (≈ 6.58 µM) | – | – | – | – |
| COC(=O)[C@H](Cc1ncn(Cc2cc(C(C)(C)C)cc(C(C)(C)C)c2)c1I)NC(=O)[C@@H](N)Cc1c[nH]c2ccccc12 [10d, Trp-His[1-(3,5-di-tert-butylbenzyl)-5-iodo]-OMe] | 17.6 (≈ 25.7 µM) | 32.0 (≈ 46.8 µM) | 17.6 (≈ 25.7 µM) | 32.0 (≈ 46.8 µM) | 17.6 (≈ 25.7 µM) | 32.0 (≈ 46.8 µM) | 1.7 | 1.3 | 44.8 | 52.2 | non-cytotoxic | – | – | – | – | 4.01 (≈ 5.87 µM) | 16 | 0.25 µg/mL and 0.250 µg/mL | 0.19 | 0.501 |
